# Values of other authors in patent US6734210B2, “Therapeutically improved salts of azelaic acid” (priority 2000, dated 2004).
compound,measurement,setting,value
O=C(O)CCCCCCCC(=O)O [azelaic acid],solubility in cosmetic oils,cosmetic oils,little or no solubility
same,maximum azelaic acid content of a water solution,water,about 0.24 % by weight (w/w)
